HELM strings list units from the 5' end as sugar, base in round brackets, then linkage (d deoxyribose, r ribose, m 2'-O-methyl, p phosphodiester). Strings are as the collection lists them, not checked against the first reports. ss, as = sense and antisense strand; [lna] = locked nucleic acid (LNA); [fl2r] = 2'-fluoro
Conditions: siRNA
Note: test system not given here.

Substance	target mRNA knockdown [%]
RNA1{r(C)p.r(U)p.r(C)p.r(C)p.r(G)p.r(A)p.r(C)p.r(A)p.r(G)p.r(A)p.m(U)p.r(G)p.r(A)p.r(A)p.r(G)p.r(G)p.r(A)p.r(A)p.r(A)p.r(T)p.r(T)}|RNA2{r(U)p.r(U)p.r(U)p.r(C)p.r(C)p.r(U)p.r(U)p.r(C)p.r(A)p.r(U)p.r(C)p.m(U)p.r(G)p.r(U)p.r(C)p.r(G)p.r(G)p.r(A)p.r(G)p.r(T)p.r(T)}$$$RNA1{StrandType:ss}|RNA2{StrandType:as}$	72
RNA1{m(A)p.r(G)p.m(C)p.r(C)p.m(U)p.r(C)p.m(C)p.r(A)p.m(A)p.r(A)p.m(C)p.r(U)p.m(C)p.r(C)p.m(U)p.r(A)p.m(G)p.r(C)p.m(U)p.r(T)p.r(T)}|RNA2{r(A)p.r(G)p.m(C)p.r(U)p.r(A)p.r(G)p.r(G)p.r(A)p.r(G)p.r(U)p.r(U)p.r(U)p.r(G)p.r(G)p.r(A)p.r(G)p.r(G)p.m(C)p.r(U)p.r(T)p.r(T)}$$$RNA1{StrandType:ss}|RNA2{StrandType:as}$	47
RNA1{r(G)p.r(A)p.m(C)p.r(A)p.r(A)p.r(G)p.r(G)p.r(G)p.r(A)p.r(A)p.r(G)p.r(G)p.r(U)p.m(U)p.r(A)p.r(G)p.r(C)p.r(C)p.r(U)p.r(T)p.r(T)}|RNA2{r(A)p.r(G)p.r(G)p.r(C)p.m(U)p.r(A)p.r(A)p.r(C)p.r(C)p.r(U)p.r(U)p.r(C)p.r(C)p.r(C)p.r(U)p.m(U)p.r(G)p.r(U)p.r(C)p.r(T)p.r(T)}$$$RNA1{StrandType:ss}|RNA2{StrandType:as}$	68
RNA1{r(C)p.r(U)p.r(U)p.r(A)p.r(C)p.r(G)p.r(C)p.r(U)p.r(G)p.r(A)p.r(G)p.r(U)p.r(A)p.r(C)p.r(U)p.r(U)p.r(C)p.r(G)p.r(A)p.r(T)p.r(T)}|RNA2{r(U)p.r(C)p.r(G)p.r(A)p.[lna](A)p.r(G)p.r(U)p.r(A)p.r(C)p.r(U)p.r(C)p.r(A)p.r(G)p.r(C)p.r(G)p.r(U)p.r(A)p.r(A)p.r(G)p.r(T)p.r(T)}$$$RNA1{StrandType:ss}|RNA2{StrandType:as}$	83
RNA1{r(G)p.r(G)p.r(A)p.m(C)p.m(U)p.r(A)p.m(C)p.m(U)p.r(A)p.r(A)p.m(C)p.m(C)p.m(U)p.m(C)p.m(C)p.r(A)p.r(G)p.m(U)p.m(U)p.r(T)p.r(T)}|RNA2{r(A)p.r(A)p.m(C)p.m(U)p.r(G)p.r(G)p.r(A)p.r(G)p.r(G)p.m(U)p.m(U)p.r(A)p.r(G)p.m(U)p.r(A)p.r(G)p.m(U)p.m(C)p.m(C)p.r(T)p.r(T)}$$$RNA1{StrandType:ss}|RNA2{StrandType:as}$	7
RNA1{r(U)p.m(U)p.m(G)p.r(G)p.r(G)p.r(G)p.m(A)p.m(A)p.r(G)p.r(C)p.r(G)p.r(G)p.r(C)p.r(C)p.r(G)p.r(G)p.r(C)p.r(G)p.r(G)p.r(T)p.r(T)}|RNA2{r(C)p.r(C)p.r(G)p.r(C)p.r(C)p.r(G)p.r(G)p.r(C)p.r(C)p.r(G)p.r(C)p.r(U)p.r(U)p.r(C)p.r(C)p.r(C)p.m(C)p.r(A)p.r(A)p.r(T)p.r(T)}$$$RNA1{StrandType:ss}|RNA2{StrandType:as}$	78
RNA1{r(U)p.r(G)p.r(A)p.r(A)p.r(C)p.r(G)p.r(U)p.m(C)p.r(A)p.r(C)p.r(C)p.r(G)p.r(A)p.r(G)p.r(G)p.r(A)p.r(G)p.r(A)p.r(A)p.r(T)p.r(T)}|RNA2{r(U)p.r(U)p.r(C)p.r(U)p.r(C)p.r(C)p.r(U)p.r(C)p.r(G)p.r(G)p.r(U)p.r(G)p.r(A)p.r(C)p.r(G)p.r(U)p.r(U)p.m(C)p.r(A)p.r(T)p.r(T)}$$$RNA1{StrandType:ss}|RNA2{StrandType:as}$	85
RNA1{[fl2r](G)p.r(C)p.[fl2r](U)p.r(A)p.[fl2r](C)p.r(C)p.[fl2r](G)p.r(C)p.[fl2r](A)p.r(A)p.[fl2r](C)p.r(C)p.[fl2r](A)p.r(C)p.[fl2r](G)p.r(A)p.[fl2r](G)p.r(C)p.[fl2r](U)p.r(T)p.r(T)}|RNA2{r(A)p.r(G)p.r(C)p.r(U)p.r(C)p.r(G)p.r(U)p.r(G)p.r(G)p.r(U)p.r(U)p.r(G)p.r(C)p.r(G)p.r(G)p.r(U)p.r(A)p.r(G)p.r(C)p.r(T)p.r(T)}$$$RNA1{StrandType:ss}|RNA2{StrandType:as}$	21
